The subject of the data set is Pancreatin. In words: Protease stability in simulated intestinal fluid (Pancreatin-SIF, FaSSIF). As to conditions: 1 μM peptide, 37° C.; for remaining at 1 h, 1 µM: 60 min, read-out: FaSSIF 60 (min), remaining percent of peptide; for remaining at 2 h, 1 µM: 120 min, read-out: FaSSIF 120 (min), remaining percent of peptide; for remaining at 4 h, 1 µM: 240 min, read-out: FaSSIF 240 (min), remaining percent of peptide. It is filed as in vitro ADME. Summed up: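 Peptide (1 μM final) was incubated at 37° C in simulated intestinal fluid containing pancreatin (1 mg per 10 mL SIF concentrate). Samples were quenched with ethanol/0.1% HCOOH at 0, 60, 120 and 240 min and analysed by LC-MS/MS. Percent remaining is the peak area relative to time 0 (100%).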

Starred links: 1 amine or outer side, 2 acyl side, 3 side chain; linkers in the order of their positions; H or OH if unused. Positions of bridges follow the written chain, without caps; N, C: chain ends. Non-standard residues stand in square brackets, D forms with d. Residues, ends and D or L forms follow the SMILES beside them. *: point of attachment. X3 = CN(CCCCC(=O)N[C@@H](CS[*:2])C(=O)[*:1])[*:3]; Trp(7-Me) = Cc1cccc2c(C[C@H](N)C(=O)O)c[nH]c12; 2Nal = N[C@@H](Cc1ccc2ccccc2c1)C(=O)O; AEF = NCCOc1ccc(C[C@H](N)C(=O)O)cc1; 3Pal = N[C@@H](Cc1cccnc1)C(=O)O; αMeL = CC(C)C[C@](C)(N)C(=O)O; Suc = O=C(CCC(=O)[*:2])[*:1]; Thp = NC1(C(=O)O)CCOCC1; Me2NCH2CH2 = CN(C)CC*; Aib = CC(C)(N)C(=O)O; Ava = NCCCCC(=O)O; Sar = CNCC(=O)O

Consider six molecules from patent US20260258084A1, “New Peptides as Selective IL-23 Receptor Antagonists” (Sanofi, priority 2022, published 2026).

For `CC(=O)NCCCC[C@@H]1NC(=O)[C@H](Cc2c[nH]c3c(C)cccc23)NC(=O)[C@H]([C@@H](C)O)NC(=O)[C@H](CC(N)=O)NC(=O)[C@@H]2CSSC[C@H](NC1=O)C(=O)N[C@@H](Cc1ccc(OCCN(C)C)cc1)C(=O)N[C@@H](Cc1ccc3ccccc3c1)C(=O)NC1(CCOCC1)C(=O)N[C@H](C(=O)N[C@@H](CC(N)=O)C(=O)N[C@@H](Cc1cccnc1)C(N)=O)CCC(=O)NCCCCC(=O)N2` [compound 51] ([Ava]CNT[Trp(7-Me)]K(Ac)CY(Me2NCH2CH2)[2Nal][Thp]EN[3Pal]-NH2; disulfide 2-7; lactam N-11), the amount remaining (usually the share of the starting amount still present when the sample was taken) at 1 h, 1 µM is 92%; the share remaining at 2 h, 1 µM is 86%; the share remaining at 4 h, 1 µM was 78%.

On to `CC(=O)NCCCC[C@@H]1NC(=O)[C@H](Cc2c[nH]c3c(C)cccc23)NC(=O)[C@H]([C@@H](C)O)NC(=O)[C@H](CC(N)=O)NC(=O)[C@@H]2CSSC[C@H](NC1=O)C(=O)N[C@@H](Cc1ccc(OCCN(C)C)cc1)C(=O)N[C@@H](Cc1ccc3ccccc3c1)C(=O)NC1(CCOCC1)C(=O)N[C@H](C(=O)N[C@@H](CC(N)=O)C(=O)N[C@@H](Cc1c[nH]cn1)C(=O)N(C)CC(N)=O)CCC(=O)NCCCCC(=O)N2` [compound 46] ([Ava]CNT[Trp(7-Me)]K(Ac)CY(Me2NCH2CH2)[2Nal][Thp]ENH[Sar]-NH2; disulfide 2-7; lactam N-11), for which the fraction remaining at 1 h, 1 µM is 89%; the share remaining at 2 h, 1 µM is 82%; the fraction remaining at 4 h, 1 µM was 81%.

Regarding `CC(=O)N[C@H]1CCCCNC(=O)[C@@H]2CSSC[C@H](NC(=O)[C@H](CCC(N)=O)NC(=O)[C@H](Cc3c[nH]c4ccccc34)NC1=O)C(=O)N[C@@H](Cc1ccc(OCCN)cc1)C(=O)N[C@@H](Cc1ccc3ccccc3c1)C(=O)NC1(CCOCC1)C(=O)N[C@H](C(=O)N[C@@H](CC(N)=O)C(=O)N[C@@H](CC(N)=O)C(N)=O)CCC(=O)N(C)CCCCC(=O)N2` [compound 13] (Ac-KWQC[AEF][2Nal][Thp]ENN-NH2; linker 1-4-8 via X3), the amount remaining at 1 h, 1 µM was 83%; the amount remaining at 2 h, 1 µM was 70%; the fraction remaining at 4 h, 1 µM was 54%.

Turning to `CC(=O)N[C@H]1CCCCNC(=O)[C@@H]2CSSC[C@H](NC(=O)[C@H](CCC(N)=O)NC(=O)[C@H](Cc3c[nH]c4ccccc34)NC1=O)C(=O)N[C@@H](Cc1ccc(OCCN)cc1)C(=O)N[C@@H](Cc1ccc3ccccc3c1)C(=O)NC1(CCOCC1)C(=O)N[C@H](C(=O)N[C@@H](C)C(=O)NCC(N)=O)CCC(=O)N(C)CCCCC(=O)N2` [compound 17] (Ac-KWQC[AEF][2Nal][Thp]EAG-NH2; linker 1-4-8 via X3), the amount remaining at 1 h, 1 µM was 81%; the share remaining at 2 h, 1 µM is 75%; the amount remaining at 4 h, 1 µM was 64%.

Regarding `CC(=O)NCCCC[C@@H]1NC(=O)[C@H](Cc2c[nH]c3c(C)cccc23)NC(=O)[C@H]([C@@H](C)O)NC(=O)[C@H](CC(N)=O)NC(=O)[C@@H]2CSSC[C@H](NC1=O)C(=O)N[C@@H](Cc1ccc(OCCN(C)C)cc1)C(=O)N[C@@H](Cc1ccc3ccccc3c1)C(=O)N[C@@](C)(CC(C)C)C(=O)N[C@H](C(=O)N[C@@H](CC(N)=O)C(=O)N[C@@H](Cc1c[nH]cn1)C(N)=O)CCCCNC(=O)CCC(=O)N2` [compound 23] (CNT[Trp(7-Me)]K(Ac)CY(Me2NCH2CH2)[2Nal][αMeL]KNH-NH2; disulfide 1-6; linker N-10 via Suc), the amount remaining at 1 h, 1 µM is 79%; the amount remaining at 2 h, 1 µM was 68%; the amount remaining at 4 h, 1 µM is 67%.

With `CC(=O)N[C@H]1CCCCNC(=O)[C@@H]2CSSC[C@H](NC(=O)[C@H](CCC(N)=O)NC(=O)[C@H](Cc3c[nH]c4ccccc34)NC1=O)C(=O)N[C@@H](Cc1ccc(OCCN)cc1)C(=O)N[C@@H](Cc1ccc3ccccc3c1)C(=O)NC(C)(C)C(=O)N[C@H](C(=O)N[C@@H](CC(N)=O)C(=O)N[C@@H](CC(N)=O)C(N)=O)CCC(=O)N(C)CCCCC(=O)N2` [compound 12] (Ac-KWQC[AEF][2Nal][Aib]ENN-NH2; linker 1-4-8 via X3), the share remaining at 1 h, 1 µM is 74%; the fraction remaining at 2 h, 1 µM was 59%; the amount remaining at 4 h, 1 µM is 41%.
